In the NIST ThermoML archive (doi:10.1016/j.jct.2012.06.012):

Assay: xn = mol fraction of the nth substance listed
Details: Liquid, Vibrating tube method

CCCCCCCCCC [decane] + CCO
Details	mass density [kg/m3]
323 K, 1000 kPa, x2 = 0.1011	707.24
323 K, 2000 kPa, x2 = 0.1011	708.19
323 K, 3000 kPa, x2 = 0.1011	709.13
323 K, 4000 kPa, x2 = 0.1011	710.05
323 K, 5000 kPa, x2 = 0.1011	710.96
323 K, 6000 kPa, x2 = 0.1011	711.86
323 K, 7000 kPa, x2 = 0.1011	712.75
323 K, 8000 kPa, x2 = 0.1011	713.62
323 K, 9000 kPa, x2 = 0.1011	714.5
323 K, 10000 kPa, x2 = 0.1011	715.37
323 K, 11000 kPa, x2 = 0.1011	716.23
323 K, 12000 kPa, x2 = 0.1011	717.09
323 K, 13000 kPa, x2 = 0.1011	717.94
323 K, 14000 kPa, x2 = 0.1011	718.79
323 K, 15000 kPa, x2 = 0.1011	719.61
323 K, 16000 kPa, x2 = 0.1011	720.42
323 K, 17000 kPa, x2 = 0.1011	721.22
323 K, 18000 kPa, x2 = 0.1011	722.01
323 K, 19000 kPa, x2 = 0.1011	722.76
323 K, 20000 kPa, x2 = 0.1011	723.51
323.03 K, 1000 kPa, x2 = 0.7526	729.67
323.03 K, 2000 kPa, x2 = 0.7526	730.66
323.03 K, 3000 kPa, x2 = 0.7526	731.64
323.03 K, 4000 kPa, x2 = 0.7526	732.61
323.03 K, 5000 kPa, x2 = 0.7526	733.56
323.03 K, 6000 kPa, x2 = 0.7526	734.49
323.03 K, 7000 kPa, x2 = 0.7526	735.43
323.03 K, 8000 kPa, x2 = 0.7526	736.37
323.03 K, 9000 kPa, x2 = 0.7526	737.3
323.03 K, 10000 kPa, x2 = 0.7526	738.24
323.03 K, 11000 kPa, x2 = 0.7526	739.17
323.03 K, 12000 kPa, x2 = 0.7526	740.08
323.03 K, 13000 kPa, x2 = 0.7526	741
323.03 K, 14000 kPa, x2 = 0.7526	741.9
323.03 K, 15000 kPa, x2 = 0.7526	742.78
323.03 K, 16000 kPa, x2 = 0.7526	743.66
323.03 K, 17000 kPa, x2 = 0.7526	744.51
323.03 K, 18000 kPa, x2 = 0.7526	745.35
323.03 K, 19000 kPa, x2 = 0.7526	746.18
323.03 K, 20000 kPa, x2 = 0.7526	746.98
323.06 K, 1000 kPa, x2 = 0.2507	709.58
323.06 K, 2000 kPa, x2 = 0.2507	710.54
323.06 K, 3000 kPa, x2 = 0.2507	711.48
323.06 K, 4000 kPa, x2 = 0.2507	712.41
323.06 K, 5000 kPa, x2 = 0.2507	713.33
323.06 K, 6000 kPa, x2 = 0.2507	714.23
323.06 K, 7000 kPa, x2 = 0.2507	715.12
323.06 K, 8000 kPa, x2 = 0.2507	716.01
323.06 K, 9000 kPa, x2 = 0.2507	716.9
323.06 K, 10000 kPa, x2 = 0.2507	717.78
323.06 K, 11000 kPa, x2 = 0.2507	718.65
323.06 K, 12000 kPa, x2 = 0.2507	719.53
323.06 K, 13000 kPa, x2 = 0.2507	720.39
323.06 K, 14000 kPa, x2 = 0.2507	721.24
323.06 K, 15000 kPa, x2 = 0.2507	722.08
323.06 K, 16000 kPa, x2 = 0.2507	722.91
323.06 K, 17000 kPa, x2 = 0.2507	723.72
323.06 K, 18000 kPa, x2 = 0.2507	724.51
323.06 K, 19000 kPa, x2 = 0.2507	725.28
323.06 K, 20000 kPa, x2 = 0.2507	726.04
332.86 K, 1000 kPa, x2 = 0.0937	699.25
332.86 K, 1000 kPa, x2 = 0.9014	736.03
332.86 K, 2000 kPa, x2 = 0.0937	700.26
332.86 K, 2000 kPa, x2 = 0.9014	737.11
332.86 K, 3000 kPa, x2 = 0.0937	701.26
332.86 K, 3000 kPa, x2 = 0.9014	738.18
332.86 K, 4000 kPa, x2 = 0.0937	702.24
332.86 K, 4000 kPa, x2 = 0.9014	739.22
332.86 K, 5000 kPa, x2 = 0.0937	703.21
332.86 K, 5000 kPa, x2 = 0.9014	740.19
332.86 K, 6000 kPa, x2 = 0.0937	704.16
332.86 K, 6000 kPa, x2 = 0.9014	741.29
332.86 K, 7000 kPa, x2 = 0.0937	705.1
332.86 K, 7000 kPa, x2 = 0.9014	742.31
332.86 K, 8000 kPa, x2 = 0.0937	706.03
332.86 K, 8000 kPa, x2 = 0.9014	743.33
332.86 K, 9000 kPa, x2 = 0.0937	706.94
332.86 K, 9000 kPa, x2 = 0.9014	744.36
332.86 K, 10000 kPa, x2 = 0.0937	707.85
332.86 K, 10000 kPa, x2 = 0.9014	745.34
332.86 K, 11000 kPa, x2 = 0.0937	708.77
332.86 K, 11000 kPa, x2 = 0.9014	746.35
332.86 K, 12000 kPa, x2 = 0.0937	709.67
332.86 K, 12000 kPa, x2 = 0.9014	747.33
332.86 K, 13000 kPa, x2 = 0.0937	710.57
332.86 K, 13000 kPa, x2 = 0.9014	748.31
332.86 K, 14000 kPa, x2 = 0.0937	711.45
332.86 K, 14000 kPa, x2 = 0.9014	749.26
332.86 K, 15000 kPa, x2 = 0.0937	712.31
332.86 K, 15000 kPa, x2 = 0.9014	750.21
